Source: US20160355530A1, “HEPATITIS C INHIBITORS AND USES THEREOF” (AbbVie Inc., priority 2010, published 2016)
Where two headings read alike, the source gives them in different places.

Key:
[1] = tested on: HCV 1b-Con1 subgenomic replicon; test: Stable replicon cell culture assay (luciferase), 1b-Con1; 5% FBS, optionally 40% human plasma; assay type: cell-based, HCV genotype 1b; settings: Hepatitis C virus
[2] = tested on: chimeric replicon with genotype 4a NS5B; test: microbe, parasite or virus in culture; assay type: cell-based, HCV genotype 4a; settings: Hepatitis C virus, read-out: 4a chimera 5% FBS EC50
[3] = biological target: T1, HCV NS5B polymerase 1b Rice (Hepatitis C virus genotype 1b, UniProt Q9WMX2); test: HCV NS5B polymerase enzymatic inhibition assay, strain 1b Rice; assay type: biochemical, HCV genotype 1b; settings: enzyme
T1 construct: six-histidine tag; made in house; host or cells: E. coli
Method: Purified HCV NS5B polymerase enzymes were used for polymerase inhibition assays. All recombinant HCV polymerases contained the first 570 amino acids of the 591 amino acid native protein sequence and a six-histidine tag at the N-terminus or C-terminus to facilitate purification by affinity chromatography. The DNA nucleotide sequence for the HCV polymerase 1b BK strain was codon optimized for expression in E. coli. A synthetic gene was prepared from a series of overlapping oligonucleotides that were filled in using a DNA polymerase and amplified by PCR. The patient isolate HCV polymerases were cloned by RT-PCR methods using HCV RNA extracted from the serum of infected subjects obtained from ProMedDx and BioCollections (genotypes 2a, 2b, 3a, and 4a). Laboratory strains were cloned from plasmid DNA (1a-H77 or 1a-H77-C316Y) or from existing replicon cells (1b Rice). In all cases the amplified DNA was cloned into a protein expression vector (typically a pET vector from Novagen) and then multiple clones were sequenced to identify one whose NS5B sequence agreed with the population sequence. This sequence-confirmed clone was then transfected into E. coli for protein expression and purification. E. coli cultures were grown to a maximum optical density (OD) of 2-3 and then induced with 0.4 mM isopropyl beta-D-thiogalactopyranoside (IPTG) and grown for 20 hours at 20° C.
Proteins were purified using nickel affinity chromatography, and additional column steps were added including, ion exchange, size exclusion, hydrophobic ion, and poly-U affinity chromatography, as needed, depending on the sample being purified. The template RNA used in the polymerase enzymatic assay was a 2.1 kb construct that corresponds to the 3′-end of an HCV genotype 1b negative strand RNA.
The reaction was initiated by the addition of 20 μM CTP, 20 μM ATP, 0.284 μM (0.5 μCi) of 5,6-[^3H] UTP, 5 nM template RNA and 0.1 U/μL RNase inhibitor (RNasin, Promega), and allowed to proceed for three hours at 30° C. The final reaction volume was 50 μL. The reaction was terminated by the addition of 50 uL of 4 mM spermine in 10 mM Tris-HCl, pH 7.5, 1 mM EDTA. The quenched reaction was allowed to incubate for at least 15 minutes at room temperature, and then the precipitated RNA was captured by filtration through a glass fiber filter (GF/B, Millipore) in a 96 well format. The filter plate was washed five times with 200 μL of 2 mM spermine, 10 mM Tris-HCl, pH 8.0, 1 mM EDTA, and two times with ethanol. After drying thoroughly in air, 30 μL of Microscint-20 scintillation cocktail (Perkin Elmer) was added to each well, and the retained cpm were determined by scintillation counting. IC50 values were determined by nonlinear regression.
% Inhibition=100*[[I]/([I]+[IC50])] equation 1
V=kcat[S]/2(Km+[S])*(sqrt((IC50+I−E)̂2+(4*IC50*E))−(IC50+I−E)) equation 2

[4] = tested on: HCV 1a-H77 C316Y mutant subgenomic replicon; test: Stable replicon cell culture assay (luciferase), 1a-H77-C316Y mutant; assay type: cell-based, HCV genotype 1a; settings: for EC50: Hepatitis C virus, read-out: Stable Replicon 1a H77-C316Y 5% FBS EC50; for Stable Replicon Fold Resistance C316Y/1a: ratio of stable replicon EC50s, C316Y / 1a H77
[5] = tested on: HCV 1b-BB7 subgenomic replicon; test: microbe, parasite or virus in culture; assay type: cell-based, HCV genotype 1b; settings: Hepatitis C virus, stable replicon
[6] = strain 1b Con1, 5% FBS + 40% human plasma, read-out: 1b Con1 5% FBS + 40% Human Plasma EC50
[7] = strain 1b Con1, 5% FBS, no human plasma, read-out: 1b Con1 5% FBS EC50
[8] = strain 1b Con1, 5% FBS, read-out: 1b Con1 5% FBS EC50
[9] = strain 1b BB7, 5% FBS + 40% human plasma, read-out: 1b BB7 5% FBS + 40% Human Plasma EC50
[10] = strain 1b BB7, 5% FBS, no human plasma, read-out: 1b BB7 5% FBS EC50
[11] = strain 1b BB7, 5% FBS, read-out: 1b BB7 5% FBS EC50

Row | Structure (SMILES) | EC50 [1, 6] [nM] | EC50 [1, 7] [nM] | EC50 [1, 8] [nM] | EC50 [2] [nM] | IC50 [3] [nM] | EC50 [4] [nM] | Stable Replicon Fold Resistance C316Y/1a [4] [fold] | EC50 [5, 9] [nM] | EC50 [5, 10] [nM] | EC50 [5, 11] [nM]
1 | CS(=O)(=O)CCCCN(c1cc2oc(-c3ccc(Nc4ccccc4)cc3)c(-c3ncc[nH]3)c2cc1C1CC1)S(C)(=O)=O [Example 169, N-[2-(4-anilinophenyl)-5-cyclopropyl-3-(1H-imidazol-2-yl)-1-benzofuran-6-yl]-N-[4-(methylsulfonyl)butyl]methanesulfonamide] | 34.4 | 5 | 4.5 | 4.3 | 9.4 | 11.4 | 5.33 |  |  | 
2 | CS(=O)(=O)N(CCO)c1cc2oc(-c3ccc(F)cc3)c(-c3ncc[nH]3)c2cc1C1CC1 [Example 109, N-[5-cyclopropyl-2-(4-fluorophenyl)-3-(1H-imidazol-2-yl)-1-benzofuran-6-yl]-N-(2-hydroxyethyl)methanesulfonamide] |  |  |  | 166 | 16.9 | 467 | 23.6 | 184 | 12.7 | 12.7
3 | CCCC/C=C/c1ccc(-c2oc3cc(N(CCCCS(C)(=O)=O)S(C)(=O)=O)c(C4CC4)cc3c2-c2ncc[nH]2)cc1 [Example 168, N-[5-cyclopropyl-2-{4-[(1E)-hex-1-en-1-yl]phenyl}-3-(1H-imidazol-2-yl)-1-benzofuran-6-yl]-N-[4-(methylsulfonyl)butyl]methanesulfonamide] | 24.3 | 3.4 | 3.4 | 14.4 | 4.9 | 17.6 | 9.72 |  |  | 
4 | CS(=O)(=O)N(CCO)c1cc2oc(-c3ccc(F)cc3)c(C3=NOCCN3)c2cc1C1CC1 [Example 136, N-[5-cyclopropyl-3-(5,6-dihydro-4H-1,2,4-oxadiazin-3-yl)-2-(4-fluorophenyl)-1-benzofuran-6-yl]-N-(2-hydroxyethyl)methanesulfonamide] |  |  |  | 291 | 57 | 561 | 42.0 | 281 | 35 | 35
